In PubChem BioAssay (NCI):
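Results reflect a 48-hour exposure of cells in 96-well plates to compound at five concentrations. Here, GI50 denotes the concentration required for 50% inhibition of growth. TGI marks complete inhibition of growth.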

What was measured:
Assay in all cases: NCI-60 cell line screen, 48 h
[1] = tested on: 786-0 renal
[2] = tested on: A498 renal
[3] = tested on: A549 NSCLC
[4] = tested on: ACHN renal
[5] = tested on: BT-549 breast
[6] = tested on: CAKI-1 renal
[7] = tested on: CCRF-CEM leukemia
[8] = tested on: COLO 205 colon
[9] = tested on: DU-145 prostate
[10] = tested on: EKVX NSCLC
[11] = tested on: HCC-2998 colon
[12] = tested on: HCT-116 colon
[13] = tested on: HCT-15 colon
[14] = tested on: HL-60(TB) leukemia
[15] = tested on: HOP-62 NSCLC
[16] = tested on: HOP-92 NSCLC
[17] = tested on: HS 578T breast
[18] = tested on: HT29 colon
[19] = tested on: IGROV1 ovarian
[20] = tested on: K-562 leukemia
[21] = tested on: KM12 colon
[22] = tested on: LOX IMVI melanoma
[23] = tested on: M14 melanoma
[24] = tested on: MALME-3M melanoma
[25] = tested on: MCF7 breast
[26] = tested on: MDA-MB-231 breast
[27] = tested on: MDA-MB-435
[28] = tested on: MOLT-4 leukemia
[29] = tested on: NCI-H226 lung
[30] = tested on: NCI-H23 lung
[31] = tested on: NCI-H460 lung
[32] = tested on: NCI-H522 lung
[33] = tested on: NCI/ADR-RES ovarian
[34] = tested on: OVCAR-3 ovarian
[35] = tested on: OVCAR-4 ovarian
[36] = tested on: OVCAR-5 ovarian
[37] = tested on: OVCAR-8 ovarian
[38] = tested on: PC-3 prostate
[39] = tested on: RPMI-8226 leukemia
[40] = tested on: SF-268 CNS
[41] = tested on: SF-295 CNS
[42] = tested on: SF-539 CNS
[43] = tested on: SK-MEL-2 melanoma
[44] = tested on: SK-MEL-28 melanoma
[45] = tested on: SK-MEL-5 melanoma
[46] = tested on: SK-OV-3 ovarian
[47] = tested on: SN12C renal
[48] = tested on: SNB-19 CNS
[49] = tested on: SNB-75 CNS
[50] = tested on: SR leukemia
[51] = tested on: SW-620 colon
[52] = tested on: T-47D breast
[53] = tested on: TK-10 renal
[54] = tested on: U251 CNS
[55] = tested on: UACC-257 melanoma
[56] = tested on: UACC-62 melanoma
[57] = tested on: UO-31 renal
[58] = tested on: RXF 393 renal

O=C(CCCCCCNC(=O)C(O)(O)C(F)(F)F)Nc1ccc(Cl)cc1
GI50 [1]: 9480 nM
TGI [1]: > 36800 nM
GI50 [2]: 1380 nM
TGI [2]: 12500 nM
GI50 [3]: 9560 nM
TGI [3]: > 36800 nM
GI50 [4]: 6010 nM
TGI [4]: 28200 nM
GI50 [5]: 6720 nM
TGI [5]: 35000 nM
GI50 [6]: 8980 nM
TGI [6]: > 36800 nM
GI50 [7]: 2730 nM
TGI [7]: > 36800 nM
GI50 [8]: 5830 nM
TGI [8]: 15100 nM
GI50 [9]: 8130 nM
TGI [9]: > 36800 nM
GI50 [10]: 11200 nM
TGI [10]: > 36800 nM
GI50 [11]: 7620 nM
TGI [11]: 22000 nM
GI50 [12]: 1590 nM
TGI [12]: > 36800 nM
GI50 [13]: 8180 nM
TGI [13]: > 36800 nM
GI50 [14]: 3640 nM
TGI [14]: > 36800 nM
GI50 [15]: 7750 nM
TGI [15]: > 36800 nM
GI50 [16]: 1060 nM
TGI [16]: 8390 nM
GI50 [17]: 3680 nM
TGI [17]: 30100 nM
GI50 [18]: 6280 nM
TGI [18]: > 36800 nM
GI50 [19]: 5110 nM
TGI [19]: 19800 nM
GI50 [20]: 1820 nM
TGI [20]: > 36800 nM
GI50 [21]: 7920 nM
TGI [21]: > 36800 nM
GI50 [22]: 4070 nM
TGI [22]: 8940 nM
GI50 [23]: 9990 nM
TGI [23]: > 36800 nM
GI50 [24]: 2830 nM
TGI [24]: 22000 nM
GI50 [25]: 10800 nM
TGI [25]: > 36800 nM
GI50 [26]: 5200 nM
TGI [26]: 27300 nM
GI50 [27]: 7130 nM
TGI [27]: > 36800 nM
GI50 [28]: 2870 nM
TGI [28]: > 36800 nM
GI50 [29]: 9490 nM
TGI [29]: > 36800 nM
GI50 [30]: 7080 nM
TGI [30]: 34200 nM
GI50 [31]: 4590 nM
TGI [31]: > 36800 nM
GI50 [32]: 4680 nM
TGI [32]: 19800 nM
GI50 [33]: 6160 nM
TGI [33]: 28700 nM
GI50 [34]: 3830 nM
TGI [34]: 10100 nM
GI50 [35]: 15700 nM
TGI [35]: > 36800 nM
GI50 [36]: 4260 nM
TGI [36]: 20900 nM
GI50 [37]: 3500 nM
TGI [37]: > 36800 nM
GI50 [38]: 5010 nM
TGI [38]: > 36800 nM
GI50 [39]: 3460 nM
TGI [39]: > 36800 nM
GI50 [40]: 7270 nM
TGI [40]: 24500 nM
GI50 [41]: 5770 nM
TGI [41]: 13100 nM
GI50 [42]: 8850 nM
TGI [42]: > 36800 nM
GI50 [43]: 5410 nM
TGI [43]: 17600 nM
GI50 [44]: 5400 nM
TGI [44]: 34300 nM
GI50 [45]: 5070 nM
TGI [45]: 10000 nM
GI50 [46]: 5560 nM
TGI [46]: 26000 nM
GI50 [47]: 7660 nM
TGI [47]: 35600 nM
GI50 [48]: 7560 nM
TGI [48]: 30900 nM
GI50 [49]: 8760 nM
TGI [49]: > 36800 nM
GI50 [50]: 2440 nM
TGI [50]: > 36800 nM
GI50 [51]: 4020 nM
TGI [51]: 16300 nM
GI50 [52]: 5760 nM
TGI [52]: > 36800 nM
GI50 [53]: 1550 nM
TGI [53]: > 36800 nM
GI50 [54]: 4910 nM
TGI [54]: 21000 nM
GI50 [55]: 7850 nM
TGI [55]: > 36800 nM
GI50 [56]: 3190 nM
TGI [56]: 9280 nM
GI50 [57]: 5250 nM
TGI [57]: 23700 nM

C#Cc1nc(/C=C/C(=O)c2nccn2C)cs1
GI50 [1]: 262 nM
TGI [1]: 623 nM
GI50 [2]: 780 nM
TGI [2]: 1520 nM
GI50 [3]: 1110 nM
TGI [3]: 3060 nM
GI50 [4]: 291 nM
TGI [4]: 794 nM
GI50 [5]: 815 nM
TGI [5]: 1530 nM
GI50 [6]: 735 nM
TGI [6]: 1480 nM
GI50 [7]: 149 nM
TGI [7]: 566 nM
GI50 [8]: 815 nM
TGI [8]: 1730 nM
GI50 [9]: 583 nM
TGI [9]: 1280 nM
GI50 [10]: 964 nM
TGI [10]: 1960 nM
GI50 [11]: 880 nM
TGI [11]: 1620 nM
GI50 [12]: 456 nM
TGI [12]: 1220 nM
GI50 [13]: 510 nM
TGI [13]: 1310 nM
GI50 [14]: 167 nM
TGI [14]: 645 nM
GI50 [15]: 1050 nM
TGI [15]: 1960 nM
GI50 [16]: 1050 nM
TGI [16]: 1880 nM
GI50 [17]: 1040 nM
TGI [17]: 3130 nM
GI50 [18]: 837 nM
TGI [18]: 1700 nM
GI50 [19]: 105 nM
TGI [19]: 215 nM
GI50 [20]: 377 nM
TGI [20]: 2260 nM
GI50 [21]: 498 nM
TGI [21]: 1200 nM
GI50 [22]: 22.9 nM
TGI [22]: 49.9 nM
GI50 [23]: 845 nM
TGI [23]: 1980 nM
GI50 [24]: 893 nM
TGI [24]: 1830 nM
GI50 [25]: 537 nM
TGI [25]: 1940 nM
GI50 [26]: 708 nM
TGI [26]: 1500 nM
GI50 [27]: 976 nM
TGI [27]: 2820 nM
GI50 [28]: 859 nM
TGI [28]: 2500 nM
GI50 [29]: 1490 nM
TGI [29]: 9130 nM
GI50 [30]: 798 nM
TGI [30]: 1720 nM
GI50 [31]: 898 nM
TGI [31]: 2100 nM
GI50 [32]: 566 nM
TGI [32]: 1370 nM
GI50 [33]: 723 nM
TGI [33]: 2700 nM
GI50 [35]: 1000 nM
TGI [35]: 2340 nM
GI50 [36]: 859 nM
TGI [36]: 1600 nM
GI50 [37]: 1160 nM
TGI [37]: 4360 nM
GI50 [38]: 778 nM
TGI [38]: 1690 nM
GI50 [39]: 205 nM
TGI [39]: 894 nM
GI50 [58]: 502 nM
TGI [58]: 1390 nM
GI50 [40]: 813 nM
TGI [40]: 1830 nM
GI50 [41]: 961 nM
TGI [41]: 1870 nM
GI50 [42]: 748 nM
TGI [42]: 1470 nM
GI50 [43]: 909 nM
TGI [43]: 2060 nM
GI50 [44]: 915 nM
TGI [44]: 2040 nM
GI50 [45]: 1040 nM
TGI [45]: 2320 nM
GI50 [46]: 1180 nM
TGI [46]: 2440 nM
GI50 [47]: 797 nM
TGI [47]: 1700 nM
GI50 [48]: 812 nM
TGI [48]: 1550 nM
GI50 [49]: 668 nM
TGI [49]: 1360 nM
GI50 [50]: 125 nM
TGI [50]: 471 nM
GI50 [51]: 607 nM
TGI [51]: 1400 nM
GI50 [52]: 229 nM
TGI [52]: 1380 nM
GI50 [53]: 1170 nM
TGI [53]: 2120 nM
GI50 [54]: 775 nM
TGI [54]: 1540 nM
GI50 [55]: 732 nM
TGI [55]: 1610 nM
GI50 [56]: 715 nM
TGI [56]: 1460 nM
GI50 [57]: 132 nM
TGI [57]: 355 nM
